Experiments:
[1] = system: serotonin 3 (5--HT3) receptor; assay: Effect on Von Bezold-Jarisch reflex in rats (serotonin 3 receptor antagonist activity); type: in vivo, rat; conditions: male Wistar or SD rats, anesthetized; test compound 1 μg/kg i.v. 3 minutes before 2-methylserotonin (10-30 μg/kg i.v.)
Method: Effect on Von Bezold-Jarisch reflex in rats
(Serotonin 3 receptor antagonist activity)
The test was carried out substantially by the method of Fozard et al. [cf. Arch. Pharmacology, 326, 36-44 (1984)]. Male Wistar rats weighing 250-350 g or male SD rats weighing 300-400 g were anesthetized with urethane (1.5 g/kg, interraperitoneal) and placed on their back. An electrocardiogram (lead II) and a heart rate on the animals were recorded on an inkwriting oscillograph via a biophysical amplifier and a pulse rate tachomether, respectively. […] After stable responses were obtained following repeated administration of 2-methylserotonin at 15-minute intervals, the test compound (1 μg/kg) was administered intravenously 3 minutes before administration of 2-methylserotonin. The inhibition rate of the test compound was calculated as follows. [formula]

[2] = system: cisplatin-induced vomiting in ferrets; assay: Effect on cisplatin-induced vomiting in ferrets; type: in vivo, ferret; conditions: male ferrets; 0.03 mg/kg i.v. twice (30 minutes before and 45 minutes after cisplatin 10 mg/kg); emetic episodes for 3 hours
Method: Effect on cisplatin-induced vomiting in ferrets and acute toxicity in mice
Male ferrets (Marshall Lab., U.S.A.) weighing approximately 1 kg were used. For intravenous injection, a cannule was implanted in the cervical vein under pentobarbital anethesia. The experiments were started 3 and 4 days after the operation. Saline (2 ml/kg) as a control group and a dose (0.03 mg/kg) of a test compound as a treated group were administered twice, i.e., 30 minutes before and 45 minutes after administratin of 10 mg/kg of cisplatin (Sigma, U.S.A) dissolved in saline (3 ml/kg). The number of emetic episodes for 3 hours after administration of cisplatin was recorded, and the inhibition rate of the test compound was calculated as follows. [formula]
All test compounds were administered intravenously.

[3] = system: mice; assay: Acute toxicity in mice; type: in vivo, mouse; conditions: male Std-ddY mice; 100 mg/kg i.p.; mortality observed for 7 days
Method: An acute toxicity test was performed using male Std-ddY mice weighing 25-30 g. Test compounds dissolved or suspended in 0.5 % tragacanth solution were administered intraperitoneally.

SMILES | Inhibition rate (%) of Von Bezold-Jarisch reflex [1] | Inhibition of emetic episodes in ferrets, inhibition rate (%) [2] | Acute toxicity in mice (number of dead animals/number of animals used) [3]
Cc1cccc(CN2CCN(C)CC(NC(=O)c3n[nH]c4ccccc34)C2)c1 (stereo not shown) [Example 1(a), N-[1-(3-methylbenzyl)4-methylhexahydro-1H-1,4-diazepin-6-yl]-1H-indazole-3-carboxamide] | 82% | 89% | 1/5
COc1ccc(CN2CCN(C)CC(NC(=O)c3n[nH]c4ccccc34)C2)cc1 (stereo not shown) [Example 5] | 78% | – | –
CN1CCN(Cc2cccnc2)CC(NC(=O)c2n[nH]c3ccccc23)C1 (stereo not shown) [Example 16, N-[1-(3-pyridylmethyl)-4-methylhexahydro-1H-1,4-diazepin-6-yl]-1H-indazole-3-carboxamide] | 85% | 82% | 0/5
CC1CN(Cc2ccccc2)CC(NC(=O)c2n[nH]c3ccccc23)CN1C (single isomer, unassigned) [Example 67, N-(1-benzyl-3,4-dimethylhexahydro-1H-1,4-diazepin-6-yl)-1H -indazole-3-carboxamide] | 72% | – | –
CN1CCN(Cc2ccc(Br)cc2)CC(NC(=O)c2n[nH]c3ccccc23)C1 (stereo not shown) [Example 10] | 82% | – | –
CN1CCN(Cc2ccncc2)CC(NC(=O)c2n[nH]c3ccccc23)C1 (stereo not shown) [Example 17] | 91% | 62% | 1/5
CC1CN(C)CC(NC(=O)c2n[nH]c3ccccc23)CN1Cc1ccccc1 (single isomer, unassigned) [Example 69, N-(1-benzyl-2,4-dimethylhexahydro-1H-1,4-diazepin-6-yl)-1H -indazole-3-carboxamide] | 90% | – | –
CCCCn1nc(C(=O)NC2CN(C)CCN(Cc3ccccc3)C2)c2ccccc21 (stereo not shown) [Example 46] | 70% | – | –
CN1CCN(Cc2ccccc2)CC(NC(=O)c2nn(C)c3ccccc23)C1 (stereo not shown) [Example 33, N-(1-benzyl-4-methylhexahydro-1H-1,4-diazepin-6-yl)-1-methyl-1H-indazole-3-carboxamide] | 96% | 44% | 2/5
Cc1ccc(CN2CCN(C)CC(NC(=O)c3n[nH]c4ccccc34)C2)cc1 (stereo not shown) [Example 3] | 92% | – | –
Cc1cccc(CN2CCN(C)CC(NC(=O)c3n[nH]c4ccccc34)C2)c1 (stereo not shown) [1(b), N-[1-(3-methylbenzyl)4-methylhexahydro-1H-1,4-diazepin-6-yl]-1H-indazole-3-carboxamide] | 83% | – | –
CN1CCN(Cc2ccccc2F)CC(NC(=O)c2n[nH]c3ccccc23)C1 (stereo not shown) [Example 6] | 75% | – | –
CN1CCN(Cc2cc(F)cc(F)c2)CC(NC(=O)c2n[nH]c3ccccc23)C1 (stereo not shown) [Example 23] | 86% | – | –
CN1CCN(Cc2ccc(C#N)cc2)CC(NC(=O)c2n[nH]c3ccccc23)C1 (stereo not shown) [Example 13] | 83% | – | –
CC(=O)n1nc(C(=O)NC2CN(C)CCN(Cc3ccccc3)C2)c2ccccc21 (stereo not shown) [Example 52, N-(1-benzyl-4-methylhexahydro-1H-1,4-diazepin-6-yl)-1-acetyl-1H-indazole-3-carboxamide] | 89% | – | –
CN1CCN(Cc2cccc(F)c2)CC(NC(=O)c2n[nH]c3ccccc23)C1 (stereo not shown) [Example 7] | 84% | – | –
CN1CCN(Cc2ccccc2C#N)CC(NC(=O)c2n[nH]c3ccccc23)C1 (stereo not shown) [Example 11, N-[1-(2-cyanobenzyl)-4-methylhexahydro-1H-1,4-diazepin-6-yl]-1H-indazole-3-carboxamide] | 95% | – | –
C=CCn1nc(C(=O)NC2CN(C)CCN(Cc3ccccc3)C2)c2ccccc21 (stereo not shown) [Example 48] | 79% | – | –
CCC(=O)n1nc(C(=O)NC2CN(C)CCN(Cc3ccccc3)C2)c2ccccc21 (stereo not shown) [Example 53, N-(1-benzyl-4-methylhexahydro-1H-1,4-diazepin-6-yl)-1-propionyl-1H-indazole-3-carboxamide] | 83% | 29% | 1/5
CN1CCN(Cc2ccc(F)cc2)CC(NC(=O)c2n[nH]c3ccccc23)C1 (stereo not shown) [Example 8] | 77% | 71% | 0/5
CN1CCN(Cc2ccccc2)CC(NC(=O)c2n[nH]c3ccccc23)C1 (stereo not shown) [Example 32, N-(1-benzyl-4-methylhexahydro-1H-1,4-diazepin-6-yl)-1H-indazole-3-carboxamide] | – | 62% | 0/5

From patent US5017573A, “Indazole-3-carboxylic acid derivatives” (Dainippon Pharmaceutical Co., Ltd., priority 1988, dated 1991)
